Test results published in the supplement of paper PMC10307832.

Experiments:
Test in all cases: relative viability (nuclei count vs DMSO), 5 days (fraction); higher = more cells survive
[1] = compound: COc1ccc(-c2ccc3c(N4CCOC[C@@H]4C)nc(N4CCOC[C@@H]4C)nc3n2)cc1CO [AZD8055] + N=C(N)NC(=N)NCCc1ccccc1 [Phenformin] (partner 250 µM)
Method in brief: (§1)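 Cells from lung cancer lines were seeded into 1536-well plates and, one day later, dosed by pin tool. Treatments were either a single drug or a fixed dose of an anchor drug with five library-drug doses (not always all listed) in √10 steps. After 5 days, nuclei were stained in a one-step fixation (final 0.05% Triton X-100, 1% formaldehyde, 1 ug/ml Hoechst) and counted on 4× images, and relative viability is the treated-to-vehicle nuclei ratio, as the median of duplicate plates.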

[2] = compound: COc1ccc(-c2ccc3c(N4CCOC[C@@H]4C)nc(N4CCOC[C@@H]4C)nc3n2)cc1CO [AZD8055] + Nc1nc2[nH]cc(CCc3ccc(C(=O)N[C@@H](CCC(=O)O)C(=O)O)cc3)c2c(=O)[nH]1 [Pemetrexed] (partner 0.2 µM)
Method in brief: as §1

[3] = compound: COc1ccc(-c2ccc3c(N4CCOC[C@@H]4C)nc(N4CCOC[C@@H]4C)nc3n2)cc1CO [AZD8055] + CC(=O)Nc1cccc(-n2c(=O)n(C3CC3)c(=O)c3c(Nc4ccc(I)cc4F)n(C)c(=O)c(C)c32)c1 [Trametinib] (partner 0.02 µM)
Method in brief: as §1

[4] = compound: COc1ccc(-c2ccc3c(N4CCOC[C@@H]4C)nc(N4CCOC[C@@H]4C)nc3n2)cc1CO [AZD8055] + CC1(C)CCC(c2ccc(Cl)cc2)=C(CN2CCN(c3ccc(C(=O)NS(=O)(=O)c4ccc(N[C@H](CCN5CCOCC5)CSc5ccccc5)c(S(=O)(=O)C(F)(F)F)c4)cc3)CC2)C1 [Navitoclax] (partner 0.5 µM)
Method in brief: as §1

| Cell Line | relative viability ([1]; first compound 0.01 µM) | relative viability ([1]; first compound 0.03162 µM) | relative viability ([1]; first compound 0.1 µM) | relative viability ([1]; first compound 0.3162 µM) | relative viability ([1]; first compound 1 µM) | relative viability ([2]; first compound 0.01 µM) | relative viability ([2]; first compound 0.03162 µM) | relative viability ([2]; first compound 0.1 µM) | relative viability ([2]; first compound 0.3162 µM) | relative viability ([2]; first compound 1 µM) | relative viability ([3]; first compound 0.01 µM) | relative viability ([3]; first compound 0.03162 µM) | relative viability ([3]; first compound 0.1 µM) | relative viability ([3]; first compound 0.3162 µM) | relative viability ([3]; first compound 1 µM) | relative viability ([4]; first compound 0.01 µM) | relative viability ([4]; first compound 0.03162 µM) | relative viability ([4]; first compound 0.1 µM) | relative viability ([4]; first compound 0.3162 µM) | relative viability ([4]; first compound 1 µM) |
| --- | --- | --- | --- | --- | --- | --- | --- | --- | --- | --- | --- | --- | --- | --- | --- | --- | --- | --- | --- | --- |
| NCI-H441 | 0.767 | 0.574 | 0.628 | 0.27 | 0.343 | 0.273 | 0.247 | 0.232 | 0.234 | 0.205 | 0.432 | 0.452 | 0.282 | 0.229 | 0.201 | 0.748 | 0.955 | 0.464 | 0.334 | 0.251 |
| NCI-H1793 | 0.405 | 0.272 | 0.196 | 0.203 | 0.207 | 0.721 | 0.376 | 0.268 | 0.184 | 0.225 | 0.449 | 0.274 | 0.279 | 0.183 | 0.22 | 0.363 | 0.288 | 0.205 | 0.229 | 0.163 |
| NCI-H23 | 0.785 | 0.778 | 0.713 | 0.465 | 0.403 | 0.503 | 0.635 | 0.542 | 0.326 | 0.354 | 0.277 | 0.314 | 0.33 | 0.227 | 0.22 | 0.879 | 0.847 | 0.677 | 0.318 | 0.253 |
| HARA | 0.548 | 0.478 | 0.5 | 0.307 | 0.215 |  | 0.214 | 0.281 | 0.259 | 0.192 |  | 0.671 | 0.497 | 0.285 | 0.223 | 1.16 | 1.13 | 0.935 | 0.738 | 0.393 |
| NCI-H1792 | 0.193 | 0.193 | 0.0875 | 0.0907 | 0.109 | 0.764 | 0.343 | 0.193 | 0.108 | 0.108 | 0.511 | 0.273 | 0.227 | 0.0933 | 0.0673 | 0.89 | 0.518 | 0.51 | 0.13 | 0.086 |
| NCI-H1703 |  |  |  |  |  |  |  |  |  |  |  |  |  |  |  | 0.944 | 0.702 | 0.517 | 0.292 | 0.337 |
| NCI-H2342 | 0.609 | 0.495 | 0.429 | 0.394 | 0.437 | 0.748 | 0.785 | 0.542 | 0.49 | 0.549 | 0.894 | 0.731 | 0.598 | 0.552 | 0.525 |  |  |  |  |  |
| CAL-12T | 0.567 | 0.626 | 0.479 | 0.23 | 0.2 | 1.02 | 0.891 | 0.918 | 0.424 | 0.296 | 0.33 | 0.308 | 0.227 | 0.186 | 0.196 | 1.25 | 1.24 | 0.838 | 0.35 | 0.23 |
| NCI-H727 | 0.542 | 0.38 | 0.584 | 0.33 | 0.327 |  |  |  |  |  | 0.352 | 0.399 | 0.368 | 0.37 | 0.458 | 0.432 | 0.397 | 0.324 | 0.168 | 0.215 |
| NCI-H2085 | 0.739 | 0.67 | 0.417 | 0.34 | 0.314 | 0.827 | 0.74 | 0.481 | 0.31 | 0.268 | 0.535 | 0.326 | 0.282 | 0.246 | 0.295 | 1.11 | 0.945 | 0.672 | 0.417 | 0.33 |
| NCI-H1395 | 0.447 | 0.396 | 0.333 | 0.394 | 0.374 | 0.767 | 0.547 | 0.735 | 0.385 | 0.356 | 0.977 | 0.793 | 0.712 | 0.514 | 0.544 | 1.4 | 0.97 | 0.797 | 0.654 | 0.498 |
| NCI-H1648 |  |  |  |  |  | 0.942 | 0.675 | 0.641 | 0.324 | 0.285 | 0.396 | 0.446 | 0.342 | 0.316 | 0.209 |  |  |  |  |  |
| NCI-H460 | 0.609 | 0.474 | 0.124 | 0.049 | 0.034 | 0.0514 | 0.0565 | 0.0535 | 0.0755 | 0.0693 | 0.144 | 0.129 | 0.0855 | 0.0696 | 0.0537 | 1.19 | 0.892 | 0.523 | 0.121 | 0.0653 |
| A549 | 0.175 | 0.155 | 0.1 | 0.0798 | 0.0524 |  |  |  |  |  |  |  |  |  |  | 1.21 | 0.74 | 0.454 | 0.189 | 0.143 |
| IA-LM |  |  |  |  |  |  |  |  |  |  |  |  |  |  |  | 0.566 | 0.495 | 0.291 | 0.109 | 0.105 |
| EKVX | 0.225 | 0.247 | 0.229 | 0.209 | 0.188 | 0.476 | 0.436 | 0.389 | 0.322 | 0.289 | 0.339 | 0.389 | 0.296 | 0.247 | 0.227 | 1.08 | 1.04 | 0.797 | 0.512 | 0.413 |
| ChaGo-K-1 | 0.508 | 0.467 | 0.494 | 0.407 | 0.374 | 0.26 | 0.262 | 0.256 | 0.251 | 0.271 | 1.03 | 0.884 | 0.858 | 0.66 | 0.628 | 1.09 | 1.08 | 1.3 | 0.655 | 0.44 |
| NCI-H1755 | 0.609 | 0.594 | 0.541 | 0.463 | 0.474 | 0.462 | 0.423 | 0.384 | 0.424 | 0.461 | 0.729 | 0.673 | 0.615 | 0.404 | 0.385 | 0.953 | 0.71 | 0.687 | 0.296 | 0.307 |
| NCI-H2228 | 0.307 | 0.205 | 0.188 | 0.133 | 0.212 | 0.41 | 0.345 | 0.233 | 0.171 | 0.171 | 0.507 | 0.314 | 0.211 | 0.159 | 0.199 | 0.804 | 0.86 | 0.24 | 0.18 | 0.244 |
